Reference: patent US20190337924A1, “SUBSTITUTED HYDANTOIN AND THIOHYDANTOIN DERIVATIVES AS ANDROGEN RECEPTOR ANTAGONISTS” (Janssen Pharmaceutica NV, priority 2016, published 2019)
Counter-ions that a name gives are not always drawn.

Columns and labels:
[1] = molecular target: T1, wild-type Androgen Receptor (AR-wt) (Homo sapiens, UniProt P10275); assay: AR reporter assay, LNCaP-AR-wt ANT (antagonist mode); type: cell-based; details: for Emax: read-out: LNCaP-AR-wt ANT MAX % Inh
T1 construct: expressed in transfected cells; host or cells: LNCaP
T1 sequence (P10275 1-920): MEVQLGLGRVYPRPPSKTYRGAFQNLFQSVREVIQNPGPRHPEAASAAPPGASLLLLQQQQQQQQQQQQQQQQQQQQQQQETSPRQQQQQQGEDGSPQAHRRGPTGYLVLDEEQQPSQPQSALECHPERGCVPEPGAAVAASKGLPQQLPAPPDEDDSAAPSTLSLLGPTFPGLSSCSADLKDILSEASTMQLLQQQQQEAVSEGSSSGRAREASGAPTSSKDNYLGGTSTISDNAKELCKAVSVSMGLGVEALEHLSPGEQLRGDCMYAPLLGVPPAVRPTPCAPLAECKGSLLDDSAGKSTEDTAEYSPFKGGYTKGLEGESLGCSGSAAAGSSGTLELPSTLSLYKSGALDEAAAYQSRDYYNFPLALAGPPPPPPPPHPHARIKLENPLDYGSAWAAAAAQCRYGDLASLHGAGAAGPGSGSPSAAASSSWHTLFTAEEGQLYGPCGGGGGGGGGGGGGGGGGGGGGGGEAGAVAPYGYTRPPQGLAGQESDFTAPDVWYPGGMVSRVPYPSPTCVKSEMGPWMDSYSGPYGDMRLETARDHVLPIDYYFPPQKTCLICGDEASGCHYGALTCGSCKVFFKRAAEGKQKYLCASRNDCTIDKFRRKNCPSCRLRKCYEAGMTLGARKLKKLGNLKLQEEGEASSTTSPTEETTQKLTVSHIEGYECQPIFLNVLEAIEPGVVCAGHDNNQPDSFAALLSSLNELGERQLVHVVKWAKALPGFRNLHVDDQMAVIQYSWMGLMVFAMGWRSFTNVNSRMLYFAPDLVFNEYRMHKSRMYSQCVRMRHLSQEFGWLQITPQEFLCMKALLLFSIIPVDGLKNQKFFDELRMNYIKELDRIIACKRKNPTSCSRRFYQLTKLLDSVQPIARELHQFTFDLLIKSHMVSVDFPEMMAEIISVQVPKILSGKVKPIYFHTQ
Source text: (§1) LNCaP AR (cs) and LNCaP F876L luciferase cell lines were generated by transduction of each cell line (description of cell line generation Joseph J D, Lu N, Qian J, Sensintaffar J, Shao G, Brigham D, Moon M, Maneval E C, Chen I, Darimont B, Hager J H. A clinically relevant androgen receptor mutation confers resistance to second-generation antiandrogens enzalutamide and ARN-509. Cancer Discov 2013; 3:1020-1029) with an Androgen Response Element Firefly Luciferase lentiviral construct at an MOI (multiplicity of infection) of 50 following the manufacturer's instructions (Qiagen). A stable pooled-population cell line was generated using puromycin (Life Technologies) selection at 1:10,000 v/v. The protocol below was used for both cell lines and for testing of the compounds of Formula (I) of the present invention.
(§2) LNCaP cells were grown to about 80% confluence, media removed and cells rinsed in Hank's balanced salt solution prior to separation from the plate with 0.05% Trypsin EDTA. Cells were lifted and trypsin negated in complete CSS (charcoal stripped serum) culture media. CSS was maintained on cells for 24 h prior to assay, at which time 5,000 cells/[…] were seeded in Greiner 384 well White/White Tissue Culture Treated Plates and incubated for a further 1-2 hours at 37° C., 5% CO2, prior to addition of 10 μL of 4× Test Compounds (compounds described herein) or Assay Controls (all diluted in complete media containing 10% css). A further 10 μL of 4× R-1881 Agonist Challenge (antagonist assay) or Buffer (agonist assay) was then added (all diluted in complete media containing 10% css). Agonist challenge was at 400 pM for WT assay and 600 pM for F876L assay. Plates containing cells and compounds herein were incubated for a further 20-24 hours at 37° C., 5% CO2 before addition of 40 μL/well of Steady-Glo Luciferase Assay System Reagent (Promega#E2520). After 1 h, plates were read for luminescence on a BMG Pherastar.
Agonist challenge: R-1881 (Metribolone)—Agonist
Antagonist control (low control): 5-(5-(4-((1-Methylpiperidin-4-yl)oxy)phenyl)-8-oxo-6-thioxo-5,7-diazaspiro[3.4]octan-7-yl)-3-(trifluoromethyl)picolinonitrile (WO 2011/103202, EXAMPLE 19, Compound 129, CAS #1332390-06-3).
(1−(Sample RLU−Ave Low Control RLU[10 μM Antagonist Control])/(Ave High Control RLU [400 pM R-1881]−Ave Low Control RLU[10 μM Antagonist Control]))*100.
(§3) EC/IC50 calculations were achieved utilizing calculated RLU data and data fitting macros. Data were fit using least-squares methods to the following formula: […]
(§4) As used herein: • pIC50 is defined as −Log10(IC50 expressed in [Molar]). • pEC50 is defined as −Log10(EC50 expressed in [Molar]). • MAX % Inh is defined as the maximum % inhibition of R1881 control response observed for a compound over the tested concentration range. • MAX % Stim is defined as the maximum % stimulation (agonist response) observed for a compound over the tested concentration range. • LNCaP-AR-wt ANT refers to the reporter assay using LNCaP cells stably transfected with the Androgen Response Element Firefly Luciferase lentiviral construct and wild-type Androgen Receptor (AR-wt) in Antagonist mode. • LNCaP-AR-wt AG refers to the reporter assay using LNCaP cells stably transfected with the Androgen Response Element Firefly Luciferase lentiviral construct and wild-type Androgen Receptor (AR-wt) in Agonist mode. • LNCaP-AR-F876L ANT refers to the reporter assay using LNCaP cells stably transfected with the Androgen Response Element Firefly Luciferase lentiviral construct and F876L mutant Androgen Receptor (AR-F876L) in Antagonist mode. • LNCaP-AR-F876L AG refers to the reporter assay using LNCaP cells stably transfected with the Androgen Response Element Firefly Luciferase lentiviral construct and F876L mutant Androgen Receptor (AR-F876L) in Agonist mode.

[2] = molecular target: T1, wild-type Androgen Receptor (AR-wt); assay: AR reporter assay, LNCaP-AR-wt AG (agonist mode); type: cell-based; details: for Emax: read-out: LNCaP-AR-wt AG MAX % Stim
Source text: as §1, §2
((Sample RLU−Ave Low Control RLU[DMSO/Buffer])/(Ave High Control RLU [1 μM R-1881]—Ave Low Control RLU[DMSO/Buffer]))*100.
as §3, §4

Row | Compound | IC50 [1] [nM] | Emax [1] [%] | EC50 [2] [nM] | Emax [2] [%]
1 | CC1(C)C(=O)N(c2ccc(C#N)c(C(F)(F)F)c2)C(=S)N1c1ccc(OC2CCNCC2)cc1 [Compound 1, 4-(4,4-Dimethyl-5-oxo-3-(4-(piperidin-4-yloxy)phenyl)-2-thioxoimidazolidin-1-yl)-2-(trifluoromethyl)benzonitrile] | 75.9 | 106 | > 15100 | 0.6
2 | CN1CCC(Oc2ccc(N3C(=S)N(c4ccc(C#N)c(C(F)(F)F)c4)C(=O)C3(C)C)cc2)CC1 [Compound 2, 4-(4,4-Dimethyl-3-(4-((1-methylpiperidin-4-yl)oxy)phenyl)-5-oxo-2-thioxoimidazolidin-1-yl)-2-(trifluoromethyl)benzonitrile hydrochloride] | 97.7 | 104 | > 15100 | -0.2
3 | CC1(C)C(=O)N(c2ccc(C#N)c(C(F)(F)F)c2)C(=S)N1c1ccc(OC2CCNCC2)nc1 [Compound 3, 4-(4,4-Dimethyl-5-oxo-3-(6-(piperidin-4-yloxy)pyridin-3-yl)-2-thioxoimidazolidin-1-yl)-2-(trifluoromethyl)benzonitrile hydrochloride] | 46.8 | 103 | > 15100 | 0.5
4 | CN1CCC(Oc2ccc(N3C(=S)N(c4ccc(C#N)c(C(F)(F)F)c4)C(=O)C3(C)C)cn2)CC1 [Compound 4, 4-(4,4-Dimethyl-3-(6-((1-methylpiperidin-4-yl)oxy)pyridin-3-yl)-5-oxo-2-thioxoimidazolidin-1-yl)-2-(trifluoromethyl)benzonitrile hydrochloride] | 89.1 | 102 | > 15100 | 0.1
5 | CC1(C)C(=O)N(c2ccc(C#N)c(C(F)(F)F)c2)C(=S)N1c1cnc(OC2CCNCC2)nc1 [Compound 5, 4-(4,4-Dimethyl-5-oxo-3-(2-(piperidin-4-yloxy)pyrimidin-5-yl)-2-thioxoimidazolidin-1-yl)-2-(trifluoromethyl)benzonitrile] | 170 | 101 | > 15100 | 0.1
6 | CN1CCC(Oc2ncc(N3C(=S)N(c4ccc(C#N)c(C(F)(F)F)c4)C(=O)C3(C)C)cn2)CC1 [Compound 6, 4-(4,4-Dimethyl-3-(2-((1-methylpiperidin-4-yl)oxy)pyrimidin-5-yl)-5-oxo-2-thioxoimidazolidin-1-yl)-2-(trifluoromethyl)benzonitrile] | 91.2 | 102 | > 15100 | 0.8
7 | CC1(C)C(=O)N(c2ccc(C#N)c(Cl)c2)C(=S)N1c1ccc(OC2CCNCC2)cc1 [Compound 7, 2-Chloro-4-(4,4-dimethyl-5-oxo-3-(4-(piperidin-4-yloxy)phenyl)-2-thioxoimidazolidin-1-yl)benzonitrile hydrochloride] | 61.7 | 101 | > 15100 | 0
8 | CN1CCC(Oc2ccc(N3C(=S)N(c4ccc(C#N)c(Cl)c4)C(=O)C3(C)C)cc2)CC1 [Compound 8, 2-Chloro-4-(4,4-dimethyl-3-(4-((1-methylpiperidin-4-yl)oxy)phenyl)-5-oxo-2-thioxoimidazolidin-1-yl)benzonitrile hydrochloride] | 81.3 | 103 | > 15100 | 0.1
9 | CC1(C)C(=O)N(c2ccc(C#N)c(Cl)c2)C(=S)N1c1ccc(OC2CCNCC2)nc1 [Compound 9, 2-Chloro-4-(4,4-dimethyl-5-oxo-3-(6-(piperidin-4-yloxy)pyridin-3-yl)-2-thioxoimidazolidin-1-yl)benzonitrile hydrochloride] | 57.5 | 102 | > 15100 | -0.2
10 | CN1CCC(Oc2ccc(N3C(=S)N(c4ccc(C#N)c(Cl)c4)C(=O)C3(C)C)cn2)CC1 [Compound 10, 2-Chloro-4-(4,4-dimethyl-3-(6-((1-methylpiperidin-4-yl)oxy)pyridin-3-yl)-5-oxo-2-thioxoimidazolidin-1-yl)benzonitrile hydrochloride] | 63.1 | 102 | > 15100 | 0.1
